The text below walks through data of ChEMBL document CHEMBL1782000, “Thiazole-based chalcones as potent antimicrobial agents. Synthesis and biological evaluation” (2011).

SMILES strings stand for the structures. Values after ≈ are worked out from the molar mass of the structure shown.

The subject of test [1] is Staphylococcus aureus. As to the kind of experiment: Antibacterial activity against Staphylococcus aureus ATCC 6538 after 24 hrs by microdilution method. The class given is functional. To be noted: ATCC 6538, 24 h. Background: Dilution methods test growth across graded concentrations, often in twofold steps.
Test [2] deals with Bacillus cereus. As to the kind of experiment: Antibacterial activity against Bacillus cereus clinical isolate after 24 hrs by microdilution method. It counts as functional.
Test [3] relates to Micrococcus flavus. As to the kind of experiment: Antibacterial activity against Micrococcus flavus ATCC 10240 after 24 hrs by microdilution method. The class given is functional. To be noted: ATCC 10240, 24 h.
Test [4] deals with Listeria monocytogenes. As to the kind of experiment: Antibacterial activity against Listeria monocytogenes NCTC 7973 after 24 hrs by microdilution method. It counts as functional. As to conditions: NCTC 7973, 24 h.
Test [5] relates to Pseudomonas aeruginosa. As to the kind of experiment: Antibacterial activity against Pseudomonas aeruginosa ATCC 27853 after 24 hrs by microdilution method. It counts as functional. As to conditions: ATCC 27853, 24 h.
The test system of test [6] is Salmonella typhimurium. The test can be described thus: Antibacterial activity against Salmonella Typhimurium ATCC 13311 after 24 hrs by microdilution method. The class given is functional, Salmonella enterica subsp. enterica serovar Typhimurium. As to conditions: Salmonella enterica, ATCC 13311, 24 h.
The test system of test [7] is Escherichia coli. As to the kind of experiment: Antibacterial activity against Escherichia coli ATCC 35210 after 24 hrs by microdilution method. The class given is functional. To be noted: ATCC 35210, 24 h.
Test [8] concerns Enterococcus faecalis. The test can be described thus: Antibacterial activity against Enterococcus faecalis isolate obtained from human after 24 hrs by microdilution method. The class given is functional.
The subject of test [9] is Staphylococcus aureus. As to the kind of experiment: Bactericidal activity against Staphylococcus aureus ATCC 6538 after 24 hrs. As to conditions: ATCC 6538, 24 h. The class given is functional.
For test [10], the system named is Bacillus cereus. The test can be described thus: Bactericidal activity against Bacillus cereus clinical isolate after 24 hrs. The class given is functional.
Test [11] has as its system Micrococcus flavus. As to the kind of experiment: Bactericidal activity against Micrococcus flavus ATCC 10240 after 24 hrs. To be noted: ATCC 10240, 24 h. The class given is functional.
Test [12] has as its system Listeria monocytogenes. The test can be described thus: Bactericidal activity against Listeria monocytogenes NCTC 7973 after 24 hrs. It counts as functional. To be noted: NCTC 7973, 24 h.
For test [13], the system named is Pseudomonas aeruginosa. As to the kind of experiment: Bactericidal activity against Pseudomonas aeruginosa ATCC 27853 after 24 hrs. As to conditions: ATCC 27853, 24 h. It counts as functional.
Test [14] relates to Salmonella typhimurium. As to the kind of experiment: Bactericidal activity against Salmonella Typhimurium ATCC 13311 after 24 hrs. It counts as functional, Salmonella enterica subsp. enterica serovar Typhimurium. To be noted: Salmonella enterica, ATCC 13311, 24 h.
The subject of test [15] is Escherichia coli. As to the kind of experiment: Bactericidal activity against Escherichia coli ATCC 35210 after 24 hrs. The class given is functional. To be noted: ATCC 35210, 24 h.
Test [16] has as its system Enterococcus faecalis. As to the kind of experiment: Bactericidal activity against Enterococcus faecalis isolate obtained from human after 24 hrs. The class given is functional.
In test [17] the test system is Aspergillus ochraceus. As to the kind of experiment: Antifungal activity against Aspergillus ochraceus ATCC 12066 after 72 hrs by serial dilution method. It counts as functional. To be noted: ATCC 12066, 72 h.
The test system of test [18] is Aspergillus versicolor. As to the kind of experiment: Antifungal activity against Aspergillus versicolor ATCC 11730 after 72 hrs by serial dilution method. It counts as functional. To be noted: ATCC 11730, 72 h.
The test system of test [19] is Aspergillus niger. As to the kind of experiment: Antifungal activity against Aspergillus niger ATCC 6275 after 72 hrs by serial dilution method. The class given is functional. To be noted: ATCC 6275, 72 h.
Test [20] relates to Aspergillus fumigatus. As to the kind of experiment: Antifungal activity against Aspergillus fumigatus plant isolate after 72 hrs by serial dilution method. It counts as functional.
Test [21] relates to Trichoderma viride. As to the kind of experiment: Antifungal activity against Trichoderma viride IAM 5061 after 72 hrs by serial dilution method. The class given is functional. To be noted: IAM 5061, 72 h.
In test [22] the test system is Penicillium ochrochloron. As to the kind of experiment: Antifungal activity against Penicillium ochrochloron ATCC 9112 after 72 hrs by serial dilution method. The class given is functional. As to conditions: ATCC 9112, 72 h.
Test [23] relates to Talaromyces funiculosus. As to the kind of experiment: Antifungal activity against Penicillium funiculosum ATCC 36839 after 72 hrs by serial dilution method. It counts as functional. To be noted: ATCC 36839, 72 h.
Test [24] can be described thus: Antifungal activity against Fusarium sporotrichioides IMT 496 after 72 hrs by serial dilution method. The class given is functional.
For test [25], the system named is Aspergillus ochraceus. The test can be described thus: Fungicidal activity against Aspergillus ochraceus ATCC 12066 after 72 hrs. It counts as functional. To be noted: ATCC 12066, 72 h.
For test [26], the system named is Aspergillus versicolor. The test can be described thus: Fungicidal activity against Aspergillus versicolor ATCC 11730 after 72 hrs. The class given is functional. To be noted: ATCC 11730, 72 h.
The subject of test [27] is Aspergillus niger. As to the kind of experiment: Fungicidal activity against Aspergillus niger ATCC 6275 after 72 hrs. It counts as functional. As to conditions: ATCC 6275, 72 h.
For test [28], the system named is Aspergillus fumigatus. As to the kind of experiment: Fungicidal activity against Aspergillus fumigatus plant isolate after 72 hrs. The class given is functional.
Test [29] relates to Trichoderma viride. As to the kind of experiment: Fungicidal activity against Trichoderma viride IAM 5061 after 72 hrs. It counts as functional. To be noted: IAM 5061, 72 h.
For test [30], the system named is Penicillium ochrochloron. As to the kind of experiment: Fungicidal activity against Penicillium ochrochloron ATCC 9112 after 72 hrs. It counts as functional. As to conditions: ATCC 9112, 72 h.
In test [31] the test system is Talaromyces funiculosus. As to the kind of experiment: Fungicidal activity against Penicillium funiculosum ATCC 36839 after 72 hrs. The class given is functional. As to conditions: ATCC 36839, 72 h.
Test [32] has as its system Fusarium sporotrichioides. As to the kind of experiment: Fungicidal activity against Fusarium sporotrichioides IMT 496 after 72 hrs. The class given is functional. As to conditions: IMT 496, 72 h.

A word on the MIC: it is the least concentration at which growth counts as inhibited. A high value points to weaker potency. Usually MBC stands for the smallest concentration meeting the test's criterion for killing. A higher MBC goes with weaker bactericidal potency. Turning to `CC1(C)S[C@@H]2[C@H](NC(=O)[C@H](N)c3ccccc3)C(=O)N2[C@H]1C(=O)O` [AMPICILLIN], the MIC in test [1], in [2], in test [3], in [4], in test [5] and in test [6] was 248 µM (≈ 86.6 µg/mL) in each case. The MIC in [7] and in [8] was 248 µM (≈ 86.6 µg/mL) in each case. Further, the MBC in [9], in test [10], in test [11], in test [12], in test [13] and in test [14] was 372 µM (≈ 130 µg/mL) each time. The minimum bactericidal concentration (MBC) in test [15] and in [16] was 372 µM (≈ 130 µg/mL) each time.

For `CN[C@@H]1[C@H](O[C@H]2[C@H](O[C@H]3[C@H](O)[C@@H](O)[C@H](N=C(N)N)[C@@H](O)[C@@H]3N=C(N)N)O[C@@H](C)[C@]2(O)C=O)O[C@@H](CO)[C@H](O)[C@H]1O` [STREPTOMYCIN], the MIC is 17.1 µM (≈ 9.95 µg/mL) in [1]; 2 µM (≈ 1.16 µg/mL) in test [2]; 2 µM (≈ 1.16 µg/mL) in test [3]; 17.1 µM (≈ 9.95 µg/mL) in test [4]; 2 µM (≈ 1.16 µg/mL) in test [5]; 2 µM (≈ 1.16 µg/mL) in test [6]. Further, the MIC was 8.6 µM (≈ 5 µg/mL) in test [7] and 4.3 µM (≈ 2.5 µg/mL) in [8]. Besides, the MBC in test [9] worked out at 42.9 µM (≈ 24.9 µg/mL); in test [10], 4.3 µM (≈ 2.5 µg/mL); in test [11], 4.3 µM (≈ 2.5 µg/mL); in test [12], 43 µM (≈ 25 µg/mL); in test [13], 4.3 µM (≈ 2.5 µg/mL); in test [14], 4.3 µM (≈ 2.5 µg/mL). Besides, the MBC amounted to 17.1 µM (≈ 9.95 µg/mL) in test [15] and 8.6 µM (≈ 5 µg/mL) in test [16].

By MFC is commonly meant the smallest concentration meeting the test's criterion for killing the fungus. With `CNc1nc(C)c(C(=O)/C=C/c2ccc([N+](=O)[O-])cc2)s1`, the MIC was 330 µM (≈ 100 µg/mL) in [1]; 330 µM (≈ 100 µg/mL) in [2]; 330 µM (≈ 100 µg/mL) in test [3]; 330 µM (≈ 100 µg/mL) in test [4]; 330 µM (≈ 100 µg/mL) in test [5]; 248 µM (≈ 75.1 µg/mL) in test [6]. For the same molecule, the MIC in [7] was 248 µM (≈ 75.1 µg/mL); in test [8], 165 µM (≈ 50.1 µg/mL); in [17] it was 250 µM (≈ 75.8 µg/mL); in test [18] it was 330 µM (≈ 100 µg/mL); in test [19], 330 µM (≈ 100 µg/mL); in test [20] it was 330 µM (≈ 100 µg/mL). The MIC in test [21] is 165 µM (≈ 50.1 µg/mL); in [22] it was 330 µM (≈ 100 µg/mL); in test [23], 330 µM (≈ 100 µg/mL). The minimum bactericidal concentration (MBC) came to 495 µM (≈ 150 µg/mL) in test [9]; 495 µM (≈ 150 µg/mL) in test [10]; 495 µM (≈ 150 µg/mL) in test [11]; 495 µM (≈ 150 µg/mL) in [12]; 495 µM (≈ 150 µg/mL) in test [13]; 330 µM (≈ 100 µg/mL) in test [14]. Besides, the MBC in test [15] and in test [16] was 330 µM (≈ 100 µg/mL) in each case. The molecule further registered an MIC (10'-2 umol/ml) in [24] of 16.5. For the same molecule, the minimal fungicidal concentration (MFC) in test [25] turned out to be 330 µM (≈ 100 µg/mL); in test [26], 496 µM (≈ 150 µg/mL); in test [27], 825 µM (≈ 250 µg/mL); in test [28], 496 µM (≈ 150 µg/mL); in test [29], 330 µM (≈ 100 µg/mL); in test [30] it was 496 µM (≈ 150 µg/mL). Further, the values for the MFC in test [31] and in test [32] were 496 µM (≈ 150 µg/mL) and 660 µM (≈ 200 µg/mL), respectively.

Regarding `c1ccc(-c2ccc(C(c3ccccc3)n3ccnc3)cc2)cc1` (stereo not given) [BIFONAZOLE], the MIC came to 403 µM (≈ 125 µg/mL) in test [17]; 25.1 µM (≈ 7.79 µg/mL) in test [18]; 50.3 µM (≈ 15.6 µg/mL) in test [19]; 3.2 µM (≈ 0.993 µg/mL) in test [20]; 806 µM (≈ 250 µg/mL) in test [21]; 403 µM (≈ 125 µg/mL) in test [22]. For the same molecule, the MIC in [23] is 1610 µM (≈ 500 µg/mL). Further, in test [24], the MIC (10'-2 umol/ml) turned out to be 8.06. Further, the MFC amounted to 806 µM (≈ 250 µg/mL) in [25]; 1610 µM (≈ 500 µg/mL) in test [26]; 201 µM (≈ 62.5 µg/mL) in test [27]; 61.2 µM (≈ 19 µg/mL) in test [28]; 1610 µM (≈ 500 µg/mL) in [29]; 1610 µM (≈ 500 µg/mL) in [30]. The MFC in test [31] was determined as 2420 µM (≈ 750 µg/mL); in test [32], 806 µM (≈ 250 µg/mL).
